Patent publication US20240316047A1, “INHIBITORS OF RNA HELICASE DHX9 AND USES THEREOF” (ACCENT THERAPEUTICS, INC., priority 2022, published 2024)

Biological target: Human recombinant DHX9 protein (Homo sapiens (Human), UniProt Q08211)
Experiment: DHX9 ATPase assay (ADP-Glo)
Type: biochemical
Details: for IC50: read-out: DHX9 Biochemical Inflection Point

Human recombinant DHX9 protein, sequence (Q08211 whole entry): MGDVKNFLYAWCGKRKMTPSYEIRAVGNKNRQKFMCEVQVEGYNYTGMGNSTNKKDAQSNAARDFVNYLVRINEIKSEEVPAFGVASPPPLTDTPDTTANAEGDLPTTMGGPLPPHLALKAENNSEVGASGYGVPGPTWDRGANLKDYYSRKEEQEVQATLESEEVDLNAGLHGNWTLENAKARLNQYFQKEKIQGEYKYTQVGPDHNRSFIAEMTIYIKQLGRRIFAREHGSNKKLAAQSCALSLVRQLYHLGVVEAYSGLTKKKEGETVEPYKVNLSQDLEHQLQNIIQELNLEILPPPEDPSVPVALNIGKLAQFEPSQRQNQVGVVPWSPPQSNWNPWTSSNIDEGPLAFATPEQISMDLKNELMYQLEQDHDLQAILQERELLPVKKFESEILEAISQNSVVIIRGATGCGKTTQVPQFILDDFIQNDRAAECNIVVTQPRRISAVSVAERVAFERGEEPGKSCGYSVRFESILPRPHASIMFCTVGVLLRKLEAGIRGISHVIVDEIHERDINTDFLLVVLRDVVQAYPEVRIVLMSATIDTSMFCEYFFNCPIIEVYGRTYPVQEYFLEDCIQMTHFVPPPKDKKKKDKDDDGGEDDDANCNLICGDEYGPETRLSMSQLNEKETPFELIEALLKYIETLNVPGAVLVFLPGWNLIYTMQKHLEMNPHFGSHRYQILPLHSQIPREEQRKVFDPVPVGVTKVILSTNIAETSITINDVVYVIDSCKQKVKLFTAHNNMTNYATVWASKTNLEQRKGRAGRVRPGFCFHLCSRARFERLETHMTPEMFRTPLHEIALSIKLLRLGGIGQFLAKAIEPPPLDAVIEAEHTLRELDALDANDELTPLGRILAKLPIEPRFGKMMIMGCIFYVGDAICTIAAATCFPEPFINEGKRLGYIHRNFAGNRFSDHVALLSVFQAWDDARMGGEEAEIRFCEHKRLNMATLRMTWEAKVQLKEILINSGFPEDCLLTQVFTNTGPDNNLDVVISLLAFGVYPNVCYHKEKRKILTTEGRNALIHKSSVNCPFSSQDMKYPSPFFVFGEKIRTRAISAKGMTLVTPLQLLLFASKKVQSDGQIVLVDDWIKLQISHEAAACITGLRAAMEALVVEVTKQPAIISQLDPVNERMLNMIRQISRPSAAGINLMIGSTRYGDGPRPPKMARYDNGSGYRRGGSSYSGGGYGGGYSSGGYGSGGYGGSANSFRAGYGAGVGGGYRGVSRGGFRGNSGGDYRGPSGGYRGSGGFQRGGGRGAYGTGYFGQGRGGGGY

DHX9 Biochemical Max Inhibition | IC50 [nM] | Structure (SMILES)
70.3 | 10.6 | Cc1cc(C(=O)Nc2cc(Cl)cc(NS(C)(=O)=O)c2)cn1-c1ncc(N2CCCC2=O)cn1 [Example 401]
75.8 | 7.3 | COCc1cnc(-c2cc(C(=O)Nc3cc(Cl)cc(NS(C)(=O)=O)c3)cn2C)nc1 [Example 690]
40.5% | 787 | CS(=O)(=O)Nc1cc(Br)cc(NC(=O)c2cc(-c3ccccc3OCc3ccccc3)cs2)c1 [Example 30]
68.5 | 37.6 | CS(=O)(=O)Nc1cc(Cl)cc(NC(=O)c2cc(-n3cc(F)cn3)cs2)c1 [Example 440]
76.8 | 45.1 | Cn1cc(C(=O)Nc2cc(Cl)cc(NS(C)(=O)=O)c2)cc1-c1ccc(N2CCCC2)cn1 [Example 402]
65.3% | 140 | CS(=O)(=O)Nc1cc(Cl)cc(NC(=O)c2cc(-c3ncc(C(F)(F)F)cc3F)cs2)c1 [Example 371]
80.6 | 52.4 | CC(C)(O)c1cc(C(=O)Nc2cc(Cl)cc(NS(C)(=O)=O)c2)cn1-c1ccccn1 [Example 650]
45.5 | 114 | Cn1cc(C(=O)Nc2cc(Cl)cc(NS(C)(=O)=O)c2)cc1-c1ncc(F)cc1/C=C/c1cncc(F)c1 [Example 729]
60.7% | 71.3 | CS(=O)(=O)Nc1cc(Cl)cc(NC(=O)c2cnn(-c3ccc(S(C)(=O)=O)cn3)c2)c1 [Example 198]
77.5 | 54.1 | Cn1cc(C(=O)Nc2cc(Cl)cc(NS(C)(=O)=O)c2)cc1-c1ccc(N2CCN(C(=O)C3CCCC3)CC2)cn1 [Example 592]
66.5 | 19.1 | Cc1sc(C(=O)Nc2cc(Cl)cc(NS(C)(=O)=O)c2)cc1-c1ccc(N2CCC(F)(F)C2)cn1 [Example 485]
64.7% | 5200 | CS(=O)(=O)Nc1cc(Cl)cc(NC(=O)c2cnn(-c3ncc(F)cc3CCc3cccc(F)c3)c2)c1 [Example 251]
62.6% | 47.9 | CS(=O)(=O)Nc1cc(Cl)cc(NC(=O)c2cnn(-c3ccccn3)c2)c1 [Example 37]
85.4 | 83.5 | COCc1cc(C(=O)Nc2cc(Cl)cc(NS(C)(=O)=O)c2)cn1-c1ncccc1F [Example 682]
59% | 76.5 | CSc1ccc(-n2cc(C(=O)Nc3cc(Cl)cc(NS(C)(=O)=O)c3)cn2)nc1 [Example 218]
67.6 | 50.3 | CS(=O)(=O)Nc1cc(Cl)cc(NC(=O)c2cc(C(=O)N3CCN(CC(F)(F)F)CC3)n(-c3ccccn3)c2)c1 [Example 649]
63.7 | 39.7 | Cc1sc(C(=O)Nc2cc(Cl)cc(NS(C)(=O)=O)c2)cc1-c1ncc(F)cc1N1CCS(=O)(=O)CC1 [Example 503]
71.9% | 73.3 | CS(=O)(=O)Nc1cc(Cl)cc(NC(=O)c2cc(N3CCNCC3)cs2)c1 [Example 244]
58.4 | 122 | CS(=O)(=O)Nc1cc(Cl)cc(NC(=O)c2cnn(-c3ncccc3Oc3cccc(F)c3)c2)c1 [Example 427]
72.7 | 3 | Cc1sc(C(=O)Nc2cc(Cl)cc(NS(C)(=O)=O)c2)cc1-c1ncc(OC2CN(C)C2)cn1 [Example 609, N-(3-chloro-5-methanesulfonamidophenyl)-5-methyl-4-{5-[(1-methylazetidin-3-yl)oxy]pyrimidin-2-yl}thiophene-2-carboxamide]
67.8 | 10.3 | Cc1sc(C(=O)Nc2cc(Cl)cc(NS(C)(=O)=O)c2)cc1-c1ncc(N2CC(F)(F)C2)cc1C#N [Example 715]
84.2 | 15.5 | CCOc1ccc(-n2cc(C(=O)Nc3cc(Cl)cc(NS(C)(=O)=O)c3)cc2C)nc1 [Example 437]
83.7 | 427 | Cn1cc(C(=O)Nc2cc(Cl)cc(NS(=O)(=O)C3CC3)c2)cc1-c1ccc(N2CC(F)(F)C2)cn1 [Example 530]
74.2 | 21.6 | CCS(=O)(=O)Nc1cc(Cl)cc(NC(=O)c2cc(C)n(-c3ncc(N4CC(F)(F)C4)cn3)c2)c1 [Example 423]

Further lines, the molecule ahead of its results:

Structure (SMILES) | DHX9 Biochemical Max Inhibition | IC50 [nM]
CN1CC(Oc2cnc(-c3cc(C(=O)Nc4cc(Cl)cc(NS(C)(=O)=O)c4)cn3CC(F)(F)F)nc2)C1 [Example 613] | 70.3 | 4.2
COc1cccc2sc(C(=O)Nc3cc(Cl)cc(NS(C)(=O)=O)c3)cc12 [Example 321] | 79.2% | 13.5
CS(=O)(=O)Nc1cc(Cl)cc(NC(=O)c2cnn([C@H]3CCC[C@@H](O)C3)c2)c1 (single isomer, unassigned) [Example 152b] | 69.9% | 126
Cc1cc(C(=O)Nc2cc(Cl)cc(NS(C)(=O)=O)c2)cn1-c1ncc(N2CCOCC2)cc1F [Example 320] | 72.2% | 10.5
Cn1cc(C(=O)Nc2cc(Cl)cc(NS(C)(=O)=O)c2)cc1-c1ncncc1OCc1cc(F)cc(F)c1 [Example 627] | 75.8 | 29.4
CS(=O)(=O)Nc1cc(Cl)cc(NC(=O)c2cc(-c3ncccc3COc3cc(F)cc(F)c3)cs2)c1 [Example 228] | 67.2% | 65.5
CS(=O)(=O)Nc1cc(Cl)cc(NC(=O)c2cccc(-n3cccn3)c2)c1 [Example 117] | 55.5% | 104
Cc1sc(C(=O)Nc2cc(Cl)cc(NS(C)(=O)=O)c2)cc1-c1ncc(C2(F)COC2)cn1 [Example 680] | 95 | 3
CS(=O)(=O)Nc1cc(Cl)cc(NC(=O)c2cc(C3CCNCC3)cs2)c1 [Example 243] | 73.2% | 92.3
Cc1cc(C(=O)Nc2cc(Cl)cc(NS(C)(=O)=O)c2)cn1-c1ncc(N2CC(F)(F)C2)cc1C#N [Example 415] | 99.9 | 15.4
CNC(=O)c1sc(C(=O)Nc2cc(Cl)cc(NS(C)(=O)=O)c2)cc1-c1ncccc1OCc1ccccc1 [Example 212] | 72.6% | 5.2
CS(=O)(=O)Nc1cc(I)cc(NC(=O)c2cc(-c3ccccc3)cs2)c1 [Example 16] | 46.3% | 251
Cc1cnc(-c2cc(C(=O)Nc3cc(Cl)cc(NS(C)(=O)=O)c3)cn2C)c(F)c1 [Example 580] | 70.5 | 23.9
Cc1cccn2cc(C(=O)Nc3cc(Cl)cc(NS(C)(=O)=O)c3)cc12 [Example 329] | 66.5% | 139
CN1C(=O)N(c2ccc(-c3cc(C(=O)Nc4cc(Cl)cc(NS(C)(=O)=O)c4)cn3C)nc2)C(=O)C1(C)C [Example 603] | 83.4 | 10.9
CS(=O)(=O)Nc1cc(Cl)cc(NC(=O)c2cnn(-c3ccccc3Oc3cccnc3)c2)c1 [Example 264] | 56.7% | 119

Structure (SMILES) | DHX9 Biochemical Max Inhibition | IC50 [nM]
Cc1sc(C(=O)Nc2cc(Cl)cc(NS(C)(=O)=O)c2)cc1-c1ncc(OC(C)(C)C(=O)O)cn1 [Example 670] | 73.4 | 6.2
CS(=O)(=O)Nc1cc(Cl)cc(NC(=O)c2cc(-c3ncc(OC4CN(S(C)(=O)=O)C4)cn3)n(CC(F)(F)F)c2)c1 [Example 651] | 59.6 | 70.6
Cc1cc(C(=O)Nc2cc(Cl)cc(NS(C)(=O)=O)c2)cn1-c1ccc(N2CCCC2)cn1 [Example 270] | 74.1% | 9.7
CS(=O)(=O)Nc1cc(Br)cc(NC(=O)c2cc(-c3ccccc3O)cs2)c1 [Example 21] | 61.7% | 33.2
CS(=O)(=O)Nc1cc(Cl)cc(NC(=O)c2cc3cc(C(F)(F)F)ccc3s2)c1 [Example 326] | 64.5% | 8110
CS(=O)(=O)Nc1cc(Cl)cc(NC(=O)c2cc(N3CCN(CC(F)(F)F)CC3)cs2)c1 [Example 246] | 67.5% | 186
CS(=O)(=O)Nc1cc(Cl)cc(NC(=O)c2cnn(-c3ncccc3OCc3ccccc3F)c2)c1 [Example 189] | 72.1% | 32.7
CS(=O)(=O)Nc1cc(Cl)cc(NC(=O)c2cc(-c3ncc(N4CC(F)(F)C4)cn3)cs2)c1 [Example 486] | 61.7 | 17.9
CS(=O)(=O)Nc1cc(Cl)cc(NC(=O)c2cc3c(F)cccn3c2)c1 [Example 305] | 63.8% | 95.3
COc1cnc(-c2cc(C(=O)Nc3cc(Cl)cc(NS(C)(=O)=O)c3)sc2C)c(F)c1 [Example 358] | 84.3% | 38.4
Cc1sc(C(=O)Nc2cc(Cl)cc(NS(C)(=O)=O)c2)cc1-c1ncc(OC2CNC2)cn1 [Example 636, 4-[5-(azetidin-3-yloxy)pyrimidin-2-yl]-N-(3-chloro-5-methanesulfonamidophenyl)-5-methylthiophene-2-carboxamide] | 70.3 | 12.2
Cn1nc(-c2ccccc2OCc2ccccc2)cc1C(=O)Nc1cc(Cl)cc(NS(C)(=O)=O)c1 [Example 139] | 59.1% | 6650
CCS(=O)(=O)Nc1cc(Cl)cc(NC(=O)c2cc(-c3ncc(OC)cc3F)c(C)s2)c1 [Example 360] | 56.5% | 40.9
Cc1cccnc1-n1cc(C(=O)Nc2cc(Br)cc(NS(C)(=O)=O)c2)cc1C [Example 45] | 67.4% | 16.4
CS(=O)(=O)Nc1cc(Cl)cc(NC(=O)c2cnn(CCO)c2)c1 [Example 127] | 66.4% | 138
Cn1cc(C(=O)Nc2cc(Cl)cc(NS(C)(=O)=O)c2)cc1-c1ncc(Cl)cn1 [Example 577] | 91.5 | 24.9
